Assay results taken from US20190254285A1, “SODIUM PHOSPHITE COMBINATIONS” (priority 2016, published 2019).

Legend:
Botrytis cinerea = Botrytis cinerea rot on wounded apple and banana fruit; type: in vivo; design: key: Different results are indicated by different letters; Different results are indicated by different letters; Different results are indicated by different letters; Different results are indicated by different letters; Different results are indicated by different letters
From the text: Tested fruit: apple (cv Elstar) and a banana (cv Cavendish) from organic origin/SKAL certified. SKAL is a semi-governmental Dutch organization that controls organic production in the Netherlands.
Used pathogen: Botrytis cinerea spore-suspension containing ˜3×10^5 propagules (spores)/ml.
Application: Fruit peel was damaged with a cork borer, depth ˜0.5 cm into the fruit, 2 wounds per apple fruit; 2 wounds per banana fruit. 30 microliters of a freshly prepared spore suspension of B. cinerea (estimated 3×10^5 spores/ml) were applied by pipette onto each wound. Subsequently, the spore-suspension was allowed to air-dry for 3 hours. 50 microliters of fungicide suspensions 1-6 were applied by pipette to each wound.
All fruits were kept at room temperature (20° C.).
Replicates: All treatments (1-6) were performed on 6 individual apples and 6 individual bananas with 2 wounds each resulting in 12 wounds per fruit per treatment. The recorded observed antifungal activity is the reduction (in percentages) of the average surface of the rot as observed in the 12 wounds compared to the rot surface of the untreated control.
Observation: All wounds were inspected daily for visual symptoms of fruit rot and/or fungus growth. Rot surface was determined after 5 and 7 days (see Tables 1, 2 and 3). The recorded observed antifungal activity is the surface of the rot.

black sigatoka = test: Black sigatoka on banana plants, single leaf test, leaf 1 preventive, VOLLEY 88 OL; type: in vivo; settings: for Area infected (%) / Efficacy: VOLLEY 88 OL 5.525 L/ha, phosphites 2 mol/l at 3 liter/ha; for Efficacy: vs untreated control
Procedure: A single leaf test was established in a research station located in the community of “Anita Grande,” county of Jimenez, province of Limon, Costa Rica (latitude 10°15′14.15″N, longitude 83°44′20.29″W).
Every treatment was established in individual plants. Treatments were applied to leaf number 1 to determine their effect as preventive. Leaf position is counted from top to bottom, whereby leaf number 1 is closest to the unfolded leaf. Treatments were distributed systematically to facilitate their location in the field.
Product applications were done in an area of 10×10 cm, with a special equipment designed to simulate aerial applications. Application was done at 35 pound-force per square inch. Since weather conditions were highly conducive for disease development, and inoculum density was very high, no artificial inoculation was done. All treatments were applied to the same position on the leaf to minimize experimental error. All treatments were applied at the equivalent volume of 25 L ha^−1, as it is done commercially. A total of 3 sprays were applied, application A at Day 0, application B at 7 days after application A (DAA), and application C at day 13 DAA. VOLLEY® 88 OL was sprayed at 5.525 L/ha and the different phosphites were applied at the same PO3 concentration of 2 mol/l and were sprayed at 3 liter/ha.
Mixture of products was done with an electric stirrer (DEWALT® General Purpose, model DW9107), equipped with a standard propel.
For the evaluation of the efficacy, the diseased area that was affected in the 10×10 cm leaf area was recorded. Evaluations were done 23, 30 and 36 DAA. Efficacy was calculated by comparing the treatments against the untreated control.

Plasmopara viticola [1] = test: Downy mildew on grapevine plants in greenhouse, phosphites and DITHANE Neotec; type: in vivo; settings: for Incidence: 21 days after the second treatment application, phosphite 1.50 l of 2 M solution/100 l, DITHANE Neotec 0.05 kg/100 liter water
Procedure: The trial was conducted with young plants of grapevine cultivar MERLOT in a greenhouse. Treatments were applied twice, once when 3 to 4 leaves were unfolded and the second application 10 days later. Each treatment had 4 plots as replications. The experimental set up was completely randomized and each plot had 3 plants. Inoculation of the plants with the pathogen Plasmopara viticola was performed 4 days after the second application. The suspension of the spores in water was prepared at the concentration of 20,000 to 40,000 spores/ml. All foliage ware inoculated. The different phosphites were applied at the same molar concentration of phosphite. With the high phosphite treatments, a concentration of 1.50 1 of a 2 M solution/100 1 was used and with the low phosphite treatment a concentration of 0.75 1 of a 2 M solution/100 1. […] An assessment on incidence and severity was performed 21 and 28 days after the second application. Efficacy was calculated for severity in comparison to untreated control infected. Similar to Example 5, with the following amendments: […] One measurement was performed at 21 days after the second application.

Plasmopara viticola [2] = test: Downy mildew on grapevine plants in greenhouse, phosphites and REVUS; type: in vivo; settings: conclusion from Table 5
Procedure: The trial was conducted with young plants of grapevine cultivar MERLOT in a greenhouse. […] Treatments were applied twice, once when 3 to 4 leaves were unfolded and the second application 10 days later. […] Inoculation of the plants with the pathogen Plasmopara viticola was performed 4 days after the second application. The suspension of the spores in water was prepared at the concentration of 20,000 to 40,000 spores/ml. All foliage ware inoculated. The different phosphites were applied at the same molar concentration of phosphite. With the high phosphite treatments, a concentration of 1.50 1 of a 2 M solution/100 1 was used and with the low phosphite treatment a concentration of 0.75 1 of a 2 M solution/100 1. […] An assessment on incidence and severity was performed 21 and 28 days after the second application. Efficacy was calculated for severity in comparison to untreated control infected.

grapevine plants = test: Phytotoxicity on grapevine plants; design: species or system grapevine cultivar MERLOT; settings: in vivo
Procedure: Treatments were applied twice, once when 3 to 4 leaves were unfolded and the second application 10 days later. […] The experimental set up was completely randomized and each plot had 3 plants. Inoculation of the plants with the pathogen Plasmopara viticola was performed 4 days after the second application. The suspension of the spores in water was prepared at the concentration of 20,000 to 40,000 spores/ml. All foliage ware inoculated. The different phosphites were applied at the same molar concentration of phosphite. With the high phosphite treatments, a concentration of 1.50 1 of a 2 M solution/100 1 was used and with the low phosphite treatment a concentration of 0.75 1 of a 2 M solution/100 1. REVUS® was used with a standard concentration of 0.015 liter/100 liter. An assessment on incidence and severity was performed 21 and 28 days after the second application. Efficacy was calculated for severity in comparison to untreated control infected.

[3] = Table 1, phosphonate Concentration 1, mandipropamid control
[4] = Table 1, phosphonate Concentration 2, mandipropamid control
[5] = Table 1, phosphonate Concentration 3, mandipropamid control
[6] = Table 2, phosphonate Concentration 2, mefenoxam control

Compound	Effect on fungicidal attack of Botrytis on apple and banana (Botrytis cinerea; [3])	Effect on fungicidal attack of Botrytis on apple and banana (Botrytis cinerea; [4])	Effect on fungicidal attack of Botrytis on apple and banana (Botrytis cinerea; [5])	Effect on fungicidal attack of Botrytis on apple and banana (Botrytis cinerea; [6])	Area infected (%) (black sigatoka; 23 DAA)	Efficacy (black sigatoka; 23 DAA)	Area infected (%) (black sigatoka; 30 DAA)	Efficacy (black sigatoka; 30 DAA)	Area infected (%) (black sigatoka; 36 DAA)	Efficacy (black sigatoka; 36 DAA)	Incidence (Plasmopara viticola [1])	Effect on fungicidal attack of Botrytis on apple and banana (Botrytis cinerea; Table 3, Na2HPO3 part, Concentration 1, mandipropamid control)	Effect on fungicidal attack of Botrytis on apple and banana (Botrytis cinerea; Table 3, Na2HPO3 part, Concentration 2, mandipropamid control)	Effect on fungicidal attack of Botrytis on apple and banana (Botrytis cinerea; Table 3, Na2HPO3 part, Concentration 3, mandipropamid control)	Increase of the fungal efficacy of REVUS compared with other phosphite salts (Plasmopara viticola [2])	Increase of the fungal efficacy of DITHANE Neotec compared with other phosphite salts (Plasmopara viticola [1]; conclusion from Table 6)	Increase of the fungal efficacy of VOLLEY 88 OL compared with other phosphite salts (black sigatoka; conclusion from Table 8)	Phytotox (%) (grapevine plants)
N.N.O=[PH](O)O [(NH4)2HPO3]	d	c	b	c	9.8%	48.4	26.2%	39.1	34.0%	34.4	–	–	–	–	–	–	–	–
O=[PH]([O-])[O-].[K+].[K+] [Treatment K2HPO3]	d	c	b	c	9.2%	51.6	26.4%	38.6	33.0%	26.5	5.0	–	–	–	–	–	–	–
disodium hydrogen phosphite [Na2HPO3]	d	c	b	c	18.8%	1.1	31.0%	27.9	38.0%	26.9	10.0	d	c	b	increases the fungal efficacy of REVUS® the best	increases the fungal efficacy of DITHANE® Neotec the best	increases the fungal efficacy of VOLLEY® 88 OL the best	0%
